Assay results: US20250304537A1 (Repare Therapeutics Inc., priority 2022, published 2025)
Read-outs that look alike come from different tables or passages of the source.

Assays:
[1] = molecular target: recombinant human Myt1 (full length PKMYT1) (Homo sapiens (Human), UniProt Q99640); assay: Recombinant human Myt1 kinase assay (ADP-Glo); assay type: biochemical; details: 10 μM ATP
Method in brief: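 Full-length insect-cell-expressed human Myt1 (18 nM final) was preincubated with compound (0.5% DMSO) for 15 min at 22 °C. The reaction ran with 10 μM ATP for 60 min at 30 °C in HEPES buffer with Mg2+/Mn2+ and DTT. ADP formed was read by ADP-Glo luminescence, giving IC50 and % max inhibition.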

[2] = tested on: PKMYT1 (CDK1 pThr14) in FUOV1 cells; assay: PKMYT1 cell-based activity assay, CDK1 pThr14 AlphaLISA in FUOV1 cells; details: read-out: FUOV-1 CDK1 pThr14 IC50
Method in brief: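 FUOV1 cells were treated with PKMYT1 inhibitor for 2 h at 37 °C, then lysed. CDK1 pThr14 was measured by AlphaLISA, pairing an anti-pThr14 antibody with an anti-total CDK1 antibody (5 nM each). Signal read at 680/615 nm and used to derive IC50.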

Chain of recombinant human Myt1 (full length PKMYT1) (Q99640 whole entry): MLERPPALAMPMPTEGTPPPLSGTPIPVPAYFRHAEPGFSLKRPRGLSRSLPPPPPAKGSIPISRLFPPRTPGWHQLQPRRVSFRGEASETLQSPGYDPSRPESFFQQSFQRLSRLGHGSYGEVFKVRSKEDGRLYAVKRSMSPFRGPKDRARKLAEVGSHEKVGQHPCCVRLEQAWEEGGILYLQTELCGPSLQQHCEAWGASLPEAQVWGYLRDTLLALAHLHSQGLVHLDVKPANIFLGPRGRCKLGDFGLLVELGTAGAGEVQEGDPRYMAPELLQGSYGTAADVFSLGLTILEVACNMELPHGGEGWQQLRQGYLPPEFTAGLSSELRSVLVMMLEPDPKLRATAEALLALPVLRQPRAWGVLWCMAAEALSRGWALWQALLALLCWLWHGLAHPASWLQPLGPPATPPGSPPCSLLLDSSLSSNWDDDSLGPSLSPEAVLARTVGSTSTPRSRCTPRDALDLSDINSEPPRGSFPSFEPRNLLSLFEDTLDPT

| Compound | IC50 [1] | IC50 ([2]; 2 h, 2 h compound incubation) | IC50 ([2]; 2 h, 2 h incubation) | IC50 ([2]; 2 h, 2 hours with compound) | IC50 ([2]; 2 h incubation) |
| --- | --- | --- | --- | --- | --- |
| NC(=O)c1nc(-c2ccccc2)nc(-c2c(Cl)ccc3[nH]ncc23)c1N [Compound 115, 5-amino-6-(5-chloro-1H-indazol-4-yl)-2-phenylpyrimidine-4-carboxamide] | 15 nM | – | 2230 nM | – | – |
| Cc1ccc2[nH]ncc2c1-c1nc(-c2ccc3c(cnn3C)c2)nc(C(N)=O)c1N [Compound 114] | 46 nM | – | 3760 nM | – | – |
| Cc1ccc2[nH]ncc2c1-c1cc(-c2cccc(F)n2)nc(C(N)=O)c1N [Compound 241] | 10 nM | – | 1970 nM | – | – |
| Cc1ccc2[nH]ncc2c1-c1cc(-c2ccnc(OC3CNC3)n2)nc(C(N)=O)c1N [Compound 194] | 10 nM | – | 476 nM | – | – |
| COc1cccnc1Nc1cc(F)ccc1-c1nc(C(N)=O)c(N)c(-c2c(C)ccc3[nH]ncc23)n1 [Compound 614] | 10 nM | 37 nM | – | – | – |
| Cc1ccc(O)c(C)c1-c1cc(-c2ccc(C(F)(F)F)cc2)nc(C(N)=O)c1N [Compound 15] | 20 nM | – | 2520 nM | – | – |
| Cc1ccc(O)c(C)c1-c1cc(C(=O)Nc2cccnc2)nc(C(N)=O)c1N [Compound 188, 5-amino-4-(3-hydroxy-2,6-dimethylphenyl)-N2-(pyridin-3-yl)pyridine-2,6-dicarboxamide] | 8 nM | – | 266 nM | – | – |
| Cc1ccc2[nH]ncc2c1-c1nc(-c2cccnc2Nc2ccnn2C2CC2)nc(C(N)=O)c1N [Compound 885] | 176 nM | – | – | > 10000 nM | – |
| Cc1ccc2[nH]ncc2c1-c1nc(-c2cccnc2NCC2CCCCO2)nc(C(N)=O)c1N (stereo not shown) [Compound 604] | 16 nM | 794 nM | – | – | – |
| Cc1ccc2[nH]ncc2c1-c1cc(-c2ccccn2)nc(C(N)=O)c1N [Compound 87] | 11 nM | – | 567 nM | – | – |
| Cc1ccc2[nH]ncc2c1-c1nc(-c2ccccc2NC(=O)c2cccc(F)c2)nc(C(N)=O)c1N [Compound 460] | 10 nM | 825 nM | – | – | – |
| Cc1ccc2[nH]ncc2c1-c1nc(Nc2ncccc2-c2ccncn2)nc(C(N)=O)c1N [Compound 818, 5-amino-6-(5-methyl-1H-indazol-4-yl)-2-((3-(pyrimidin-4-yl)pyridin-2-yl)amino)pyrimidine-4-carboxamide] | 3880 nM | – | – | > 10000 nM | – |
| Cc1ccncc1Nc1ncccc1-c1nc(C(N)=O)c(N)c(-c2c(C)ccc3[nH]ncc23)n1 [Compound 599] | 363 nM | 630 nM | – | – | – |
| Cc1ccc2[nH]ncc2c1-c1nc(-c2nccs2)nc(C(N)=O)c1N [Compound 108] | 79 nM | – | 7400 nM | – | – |
| CCOC(=O)Nc1ccccc1-c1nc(C(N)=O)c(N)c(-c2c(C)ccc3[nH]ncc23)n1 [Compound 473] | 8 nM | 48 nM | – | – | – |
| NC(=O)c1nc(-c2ccccc2)nc(-c2cccc3[nH]nc(F)c23)c1N [Compound 123] | 99 nM | – | > 10000 nM | – | – |
| CNc1ccccc1-c1nc(C(N)=O)c(N)c(-c2c(C)ccc3[nH]ncc23)n1 [Compound 365] | 28 nM | – | 774 nM | – | – |
| Cc1ccc(O)c(C)c1-c1cc(-c2cccc(=O)[nH]2)nc(C(N)=O)c1N [Compound 72] | 10 nM | – | 77 nM | – | – |
| NC(=O)c1nc(-c2ccccc2)nc(-c2cccc3[nH]ncc23)c1N [Compound 68] | 50 nM | – | > 10000 nM | – | – |
| Cc1ccc2[nH]ncc2c1-c1nc(-c2ccccc2)nc(C(N)=O)c1N [Compound 65] | 22 nM | – | 1070 nM | – | – |
| Cc1ccc2[nH]ncc2c1-c1cc(-c2ccnc(OCc3cccnc3)n2)nc(C(N)=O)c1N [Compound 164] | 14 nM | – | 473 nM | – | – |
| CC1(C(=O)Nc2cc(F)c(F)cc2-c2nc(C(N)=O)c(N)c(-c3c(Cl)ccc4[nH]ncc34)n2)CC1 [Compound 459] | 9 nM | 44 nM | – | – | – |
| Cc1cccc(NC(=O)C2(C)CC2)c1-c1nc(C(N)=O)c(N)c(-c2c(C)ccc3[nH]ncc23)n1 [Compound 457] | 516 nM | > 10000 nM | – | – | – |
| Cc1ccc2[nH]ncc2c1-c1cc(-c2ccnc(Nc3ccncc3)n2)nc(C(N)=O)c1N [Compound 200] | 11 nM | – | 154 nM | – | – |
| Cc1ccc2[nH]ncc2c1-c1nc(-c2ccccc2NC(=O)C2CC(C)(C)C2)nc(C(N)=O)c1N [Compound 417] | 18 nM | 899 nM | – | – | – |
| Cc1ccc2[nH]ncc2c1-c1nc(-c2ccccc2C(O)c2ccccn2)nc(C(N)=O)c1N (stereo not shown) [Compound 788] | 44 nM | 1270 nM | – | – | – |
| Cc1ccc2[nH]ncc2c1-c1nc(-c2cccc(C#N)c2)nc(C(N)=O)c1N [Compound 131, 5-amino-2-(3-cyanophenyl)-6-(5-methyl-1H-indazol-4-yl)pyrimidine-4-carboxamide] | 22 nM | – | 1370 nM | – | – |
| Cc1ccc2[nH]ncc2c1-c1nc(-c2ccc(F)cc2Nc2cc(C#N)ccn2)nc(C(N)=O)c1N [Compound 612] | 12 nM | 214 nM | – | – | – |
| Cc1ccc(O)cc1-c1nc(-c2ccc(N3CCN(CCO)CC3)cc2)nc(C(N)=O)c1N [Compound 6] | 24 nM | – | 1010 nM | – | – |

These reach a lower IC50 [1]. Values come first.

| IC50 [1] | IC50 ([2]; 2 h, 2 h compound incubation) | IC50 ([2]; 2 h, 2 h incubation) | IC50 ([2]; 2 h, 2 hours with compound) | IC50 ([2]; 2 h incubation) | Compound |
| --- | --- | --- | --- | --- | --- |
| 3 nM | 5 nM | – | – | – | Cc1ncc(C#N)c(Nc2cc(F)ccc2-c2nc(C(N)=O)c(N)c(-c3c(C)ccc4[nH]ncc34)n2)n1 [Compound 618] |
| 4 nM | – | – | 147 nM | – | Cc1ccc2[nH]ncc2c1-c1nc(-c2cn(C)nc2NC2CC(F)(F)C2)nc(C(N)=O)c1N [Compound 896] |
| 3 nM | 467 nM | – | – | – | Cc1ccc2[nH]ncc2c1-c1nc(-c2cccnc2NC[C@H]2CCCO2)nc(C(N)=O)c1N [Compound 601] |
| 6 nM | – | – | – | 268 nM | Cc1ccc2[nH]ncc2c1-c1cc(-c2ccnc(OCC(F)(F)F)n2)nc(C(N)=O)c1N [Compound 159] |
| 6 nM | – | 181 nM | – | – | Cc1ccc2[nH]ncc2c1-c1cc(-c2ccnc(OCCOC3CC3)n2)nc(C(N)=O)c1N [Compound 205] |
| 6 nM | – | 108 nM | – | – | Cc1ccc2[nH]ncc2c1-c1nc(-c2cccc3cn[nH]c23)nc(C(N)=O)c1N [Compound 323] |
| 3 nM | – | 6 nM | – | – | Cc1ccc2[nH]ncc2c1-c1cc(-c2ccnc(OC[C@H](N)c3ccccc3)n2)nc(C(N)=O)c1N [Compound 342] |
| 7 nM | – | 155 nM | – | – | COC(C)COc1nccc(-c2cc(-c3c(C)ccc4[nH]ncc34)c(N)c(C(N)=O)n2)n1 (stereo not shown) [Compound 303] |
| 6 nM | 41 nM | – | – | – | Cc1ccc2[nH]ncc2c1-c1nc(-c2ccccc2NC(=O)C(C)(C)C(F)(F)F)nc(C(N)=O)c1N [Compound 402] |
| 4 nM | – | – | – | 132 nM | Cc1ccc(O)c(C)c1-c1cc(-c2ccnc(N)c2)nc(C(N)=O)c1N [Compound 14] |
| 5 nM | – | 134 nM | – | – | Cc1ccc2[nH]ncc2c1-c1cc(-c2cccc(OCc3ccnnc3)n2)nc(C(N)=O)c1N [Compound 326] |
| 5 nM | 530 nM | – | – | – | Cc1cccc(Nc2ncccc2-c2nc(C(N)=O)c(N)c(-c3c(C)ccc4[nH]ncc34)n2)n1 [Compound 626] |
| < 3 nM | – | – | 118 nM | – | Cc1ccc2[nH]ncc2c1-c1nc(-c2ccc(S(C)(=O)=O)cc2NC2CCOCC2)nc(C(N)=O)c1N [Compound 831] |
| 7 nM | 9 nM | – | – | – | Cc1ccc2[nH]ncc2c1-c1nc(-c2ccccc2NC(=O)C2(C)COC2)nc(C(N)=O)c1N [Compound 408] |
| 4 nM | 6 nM | – | – | – | Cc1ccc2[nH]ncc2c1-c1nc(-c2ccc(F)cc2Nc2ncccc2C#N)nc(C(N)=O)c1N [Compound 613] |
| 4 nM | 38 nM | – | – | – | Cc1ccc2[nH]ncc2c1-c1nc(-c2ccccc2NS(=O)(=O)C2CC2)nc(C(N)=O)c1N [Compound 426] |
| 4 nM | – | – | 22 nM | – | Cc1ccc2[nH]ncc2c1-c1nc(-c2cc(Cl)ncc2NC2CCOCC2)nc(C(N)=O)c1N [Compound 839] |
| < 3 nM | – | – | 209 nM | – | Cc1ccc2[nH]ncc2c1-c1nc(-c2cccnc2NC2CC(OC(F)F)C2)nc(C(N)=O)c1N (stereo not shown) [Compound 893] |
| 4 nM | 9 nM | – | – | – | CC1(C(=O)Nc2ccccc2-c2nc(C(N)=O)c(N)c(-c3c(Cl)ccc4[nH]ncc34)n2)CC1 [Compound 410] |
| 4 nM | 25 nM | – | – | – | Cc1ccc2[nH]ncc2c1-c1nc(-c2cccnc2N[C@@H]2CCO[C@H](C)C2)nc(C(N)=O)c1N [Compound 603] |
| 7 nM | – | 169 nM | – | – | Cc1ccc(O)c(C)c1-c1cc(-c2cccc(N3CCOCC3)c2)nc(C(N)=O)c1N [Compound 42] |
| 7 nM | – | 266 nM | – | – | Cc1ccc(O)c(C)c1-c1cc(-c2ncc(F)cc2F)nc(C(N)=O)c1N [Compound 39] |
| 3 nM | – | – | – | 16 nM | Cc1ccc(O)c(C)c1-c1cc(-c2ccncn2)nc(C(N)=O)c1N [Compound 89] |
| 7 nM | 60 nM | – | – | – | NC(=O)c1nc(-c2ccccc2NC(=O)C2(C(F)(F)F)CC2)nc(-c2c(Cl)ccc3[nH]ncc23)c1N [Compound 411] |
| 3 nM | – | – | – | 113 nM | Cc1cccc(-c2cc(-c3c(C)ccc(O)c3C)c(N)c(C(N)=O)n2)n1 [Compound 91] |
| 7 nM | 28 nM | – | – | – | Cc1ccc2[nH]ncc2c1-c1nc(-c2ccccc2NC(=O)C(C)(C)C)cc(C(N)=O)c1N [Compound 398] |
| 3 nM | – | – | 71 nM | – | Cc1ccc2[nH]ncc2c1-c1nc(-c2cccnc2NC(=O)C(C)(C)C)nc(C(N)=O)c1N [Compound 805, 5-amino-6-(5-methyl-1H-indazol-4-yl)-2-(2-pivalamidopyridin-3-yl)pyrimidine-4-carboxamide] |
